Source: US4216324A, “1-Difluoromethyl-6,7-methylenedioxy-1,4-dihyd ro-4-oxo-3-quinolinecarboxylic acid” (E. I. Du Pont de Nemours and Company, priority 1978, dated 1980)
Values after ≈ are worked out from the molar mass of the structure shown. Read-outs that look alike come from different tables or passages of the source.

Tests used:
Staphylococcus aureus = Staphylococcus aureus (mouse infections); type: in vivo; conditions: female white mice, oral, at infection and again 4 hours after, 72 hours, Reed-Muench, read-out: ED50 (dose effective to save 50% of the mice)
Protocol: (§1) Female white mice weighing approximately 20 grams were infected by injecting a sufficient number of E. coli cells intraperitoneally to cause 85-100% fatalities within 3 days after infection. Groups of 12 such infected mice were dosed orally by intubation with the compound suspended in water to equal 40, 20, 10 and 5 mg/kg at the time of infection and again 4 hours after infection time. […] The dose effective to save 50% of the mice (ED50) was calculated by the Reed-Muench method (Reed, L. J. Muench, H. A Single Method of Estimating 50% Endpoints, Am. J. Hygiene 27, p. 493-497 (1938)).
2. Staphylococcus aureus (mouse infections)
The same methods as the previous test were used, except the compound concentrations were 400, 200, 100 and 50 mg/kg. The ED50 's appear in Table 2.

Escherichia coli = Escherichia coli (mouse infections); type: in vivo; conditions: female white mice, oral, at infection and again 4 hours after, 72 hours, Reed-Muench, read-out: ED50 (dose effective to save 50% of the mice)
Protocol: 1. Escherichia coli (mouse infections)
as §1

Sal typhosa = assay: In vitro minimum inhibitory concentration (MIC), tube dilution test; type: cell-based; conditions: read-out: Minimal Inhibitory Test Conens. (MIC)
Protocol: (§2) A. In vitro: mimimum inhibitory concentration (MIC)
(§3) The compound was tested in a standard bacteriological tube dilution test for MIC for a variety of bacteria. Stock cultures of the bacteria listed in Table 1 were grown in bacterial culture media at 37° C. overnight and diluted in culture tubes to a previously determined concentration proper for the test. The compound was added to result in final concentrations of 10, 2, 0.4 and 0.08 μg/ml. These were incubated for 18 hours at 37° C. and then observed to determine if growth of bacteria had occurred. The lowest concentration of the compound that inhibited bacterial growth in the MIC.
(§4) *brain-heart infusion broth, 20hour incubation at 37° C.

Proteus sp. = assay: as above; type: cell-based; conditions: brain-heart infusion broth, 20hour incubation at 37° C., read-out: Minimal Inhibitory Test Conens. (MIC)
Protocol: as §2, §3, §4

bacteria = conditions: Ronald et al., New England Journal of Medicine, 1966; cited from earlier work
mice = assay: General pharmacology screen in mice; conditions: summary in words of Tables 3 and 4 (mice and rats)
Protocol: 17- to 24-hour fasted female white mice, 16-20 g. each, or rats, 70-90 g. each were dosed orally with test drug (or standard) at 0, 4, 12, 36, 108 or 324 mg./kg.
Ataxia--The mouse or rat was placed upright on the bench top facing away from the observer. Motor incoordination manifested by abnormal gait or lack of precision during purposive movements constituted ataxia.
Vertical Bar--The mouse or rat was swung by the tail with head pointing down to a 0.5" diameter (1" diameter for rats), 30.5 cm long vertical rod covered with adhesive tape. Inability to grip the rod with the front paws, sliding or failure to move after being prodded constituted vertical bar loss.
Body Temperature--The rectal temperatures of the mice and rats were taken using a KC-1 thermocouple probe.
Excitement and Irritability--Increased spontaneous motor activity, running and jumping prior to handling were recorded as excitement. Upon handling, jumping, jerking, biting and squeaking were recorded as irritability.
Anorexia--At the end of the 0.5 hour testing period, each mouse was transferred to an individual, clear, Lucite® compartment (13.3 cm×12.7 cm×12.7 cm) with a 0.64 cm×0.64 cm wire mesh floor. Inside each compartment there was a section of a black Lucite® bar [13 cm×1.2 cm×1.2 cm) with ten spot depressions (0.8 cm diameter) each containing 0.05 ml. of 50% sweetened condensed milk. 30 Minutes later the number of milk spots consumed was counted. 5 Mice per drug dose can drink a maximum of 50 spots (2.5 ml. of milk). 15 or fewer spots consumed by 5 mice constituted anorexia.

[1] = cited from earlier work; for undesirable side effects: Cox, Delaware Medical Journal, 1970

## O=C(O)c1cn(C(F)F)c2cc3c(cc2c1=O)OCO3 [DFMQ, 1-difluoromethyl-6,7-methylenedioxy-1,4-dihydro-4-oxo-3-quinolinecarboxylic acid]
Staphylococcus aureus
  ED50: 149 mg/kg
Escherichia coli
  ED50: 9.9 mg/kg
Sal typhosa; 20 h
  MIC: < 0.08 µg/mL
Proteus sp.
  MIC: < 0.08 µg/mL

## CCn1cc(C(=O)O)c(=O)c2ccc(C)nc21 [Nalidixic Acid, nalidixic acid]
bacteria
  bacterial resistance: tendency to rapidly evoke bacterial resistance
mice
  untoward effects in the general pharmacology screen: produced some ataxia, and anorexia
[1]
  undesirable side effects: a relatively high incidence of side effects
Proteus sp.
  MIC: 2 µg/mL (≈ 8.61 µM)

## CCn1cc(C(=O)O)c(=O)c2cc3c(cc21)OCO3 [Oxolinic Acid, oxolinic acid]
mice
  untoward effects in the general pharmacology screen: produced ataxia, anorexia, excitation, and irritability
[1]
  undesirable side effects: a high incidence of undesirable side effects
[1]; Kershaw and Leigh, 1975
  toxicity, use in therapy of urinary tract infections: because of toxicity, "it should not be used as a first-line drug in the therapy of urinary tract infections."
Sal typhosa; Sal typhosa (02D), brain-heart infusion broth, 20hour incubation at 37° C.
  MIC: 0.4 µg/mL (≈ 1.53 µM)
Proteus sp.
  MIC: < 0.08 µg/mL
